*1 amine or outer side, *2 acyl side, *3 side chain or, on linkers, in order; H or OH if unused. Where a SMILES comes first, the peptide text is derived from it. Side-chain parts run from the residue outwards. [ ]: non-standard residue; d: D form. The star is where a group is joined. C20 diacid = O=C(O)CCCCCCCCCCCCCCCCCCC(=O)*; γGlu = O=C(O)[C@H](CCC(=O)[*:2])N[*:1]; C14 diacid = O=C(O)CCCCCCCCCCCCC(=O)*; Thp = NC1(C(=O)O)CCOCC1; AEEA = NCCOCCOCC(=O)O; Aib = CC(C)(N)C(=O)O
What was measured:
[1] = In vitro subcutaneous tissue supernatant (SCts) stability and metabolite identification, rat; assay type: in vitro ADME; design: remaining at 2 h: dose or concentration left out as unconfirmed; conditions: male, Sprague Dawley; rat subcutaneous tissue supernatant (SCts), 37° C, 2 h
Sprague Dawley rats = assay: Effect on systolic blood pressure, telemetry in Sprague Dawley rats; assay type: in vivo, rat; conditions: 0.1 mg/kg SC; for Systolic blood pressure (Mean) % change from baseline, 8 h / Systolic blood pressure (Mean) % change from baseline, 12 h / Systolic blood pressure (Mean) % change from baseline, 24 h: n=2; for Duration of action: last time point with an effect on BP still observed
Procedure, shortened: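 Values are % change from a 1 h pre-dose baseline in systolic pressure, tracked by telemetry for up to 48 hours after a single 0.1 mg/kg subcutaneous dose. Rats (Sprague Dawley, n=2 per peptide) carried aortic catheters and recovered at least 10 days post-surgery; duration of action marks the last time point still showing an effect.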

[2] = Pharmacokinetics in male Sprague Dawley rats after subcutaneous administration; assay type: in vivo; conditions: plasma, rat, SC, 0.05 mg/kg
[3] = Chemical stability in buffer (pH 7.4 / pH 4.5), % purity loss; assay type: physicochemical; conditions: 40° C. vs 5° C., 14 or 28 days; for Buffer stability pH 7.4 % purity loss: 100 mM phosphate buffer pH 7.4
Procedure, shortened: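 LC-UV gave % loss after 14 or 28 days of storage at 5 °C or 40 °C. Samples were diluted supernatants from compound incubated 1 h at room temperature at 10 mg/mL target, in 100 mM acetate pH 4.5 or 100 mM phosphate pH 7.4.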

[4] = Pharmacokinetics in male Sprague Dawley rats after subcutaneous administration; assay type: in vivo; conditions: plasma, rat, IV, 0.05 mg/kg
human CRF2a receptor = target: T1, human CRF2a receptor (Homo sapiens, UniProt Q13324); assay: Activity at human CRF2a receptor, cAMP functional assay in TeloHEAC cells; assay type: cell-based; conditions: TeloHEAC cells stably expressing human CRF2a receptor, relative to urocortin 2 (100 nM = 100%)
T1 construct: expressed in transfected cells; host or cells: TeloHEAC cells
T1 sequence (Q13324 1-411): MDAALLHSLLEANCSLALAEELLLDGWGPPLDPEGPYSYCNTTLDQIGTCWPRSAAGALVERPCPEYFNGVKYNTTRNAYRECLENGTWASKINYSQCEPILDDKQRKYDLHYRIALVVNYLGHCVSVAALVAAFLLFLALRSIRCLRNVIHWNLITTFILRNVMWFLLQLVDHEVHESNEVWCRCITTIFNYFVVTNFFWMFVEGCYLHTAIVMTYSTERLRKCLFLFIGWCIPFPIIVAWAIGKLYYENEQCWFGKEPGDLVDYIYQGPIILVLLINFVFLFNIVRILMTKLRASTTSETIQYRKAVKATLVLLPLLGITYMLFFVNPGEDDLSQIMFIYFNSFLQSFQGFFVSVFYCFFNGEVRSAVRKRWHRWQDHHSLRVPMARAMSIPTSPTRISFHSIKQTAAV
Procedure, shortened: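 TeloHEAC cells stably expressing human CRF2a (10000 cells/well) were treated with 16-point 1:2 compound dilutions in HBSS/20 mM HEPES with IBMX for 30 min at 37° C. cAMP was read by HTRF (665/620 nm ratio). EC50 was the concentration giving 50% activation, with 100 nM urocortin 2 set as 100%.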

CFR1R receptor = target: T2, CFR1R receptor (Homo sapiens, UniProt P34998); assay: Activity at anti-target CFR1R receptor, cAMP assay in CRF1R-overexpression CHO-K1 cells; assay type: cell-based; conditions: 100% = Sauvagine at 100 nM; for EC50: cAMP
T2 construct: host or cells: CHO-K1 (clone 2)
T2 sequence (P34998 24-415): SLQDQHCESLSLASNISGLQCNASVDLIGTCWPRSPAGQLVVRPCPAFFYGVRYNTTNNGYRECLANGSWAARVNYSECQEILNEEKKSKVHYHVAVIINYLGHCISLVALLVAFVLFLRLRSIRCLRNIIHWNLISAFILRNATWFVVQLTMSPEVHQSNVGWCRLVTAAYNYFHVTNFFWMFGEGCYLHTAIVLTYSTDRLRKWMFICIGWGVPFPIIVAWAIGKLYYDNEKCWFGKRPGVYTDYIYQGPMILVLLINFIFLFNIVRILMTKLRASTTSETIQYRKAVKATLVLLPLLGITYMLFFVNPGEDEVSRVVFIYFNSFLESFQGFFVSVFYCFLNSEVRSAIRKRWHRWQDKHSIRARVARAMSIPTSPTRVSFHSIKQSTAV
Procedure, shortened: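 The method mirrors that used with TeloHAEC cells. Here, thawed clone 2 cells seeded at 4000 cells/well are tested, and 100 nM Sauvagine sets the top of the activation scale.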

| SMILES | remaining at 2 h [1] [%] | Systolic blood pressure (Mean) % change from baseline, 8 h (Sprague Dawley rats) [%] | Systolic blood pressure (Mean) % change from baseline, 12 h (Sprague Dawley rats) [%] | Systolic blood pressure (Mean) % change from baseline, 24 h (Sprague Dawley rats) [%] | Duration of action (Sprague Dawley rats) [h] | AUC(0-t) [2] [ng·h/mL] | Cmax [2] [ng/mL] | Tmax [2] [min] | half-life [2] [min] | Buffer stability pH 7.4 % purity loss [3] | AUC(0-t) [4] [ng·h/mL] | half-life [4] [min] | Buffer stability pH 4.5 % purity loss ([3]; 100 mM acetate buffer pH 4.5) | EC50 (human CRF2a receptor) [nM] | Emax (% I) (CFR1R receptor) | EC50 (CFR1R receptor) [nM] |
| --- | --- | --- | --- | --- | --- | --- | --- | --- | --- | --- | --- | --- | --- | --- | --- | --- |
| CC[C@H](C)[C@H](NC(C)=O)C(=O)N[C@H](C(=O)N[C@@H](CC(C)C)C(=O)N[C@@H](CO)C(=O)N[C@@H](CC(C)C)C(=O)N[C@@H](CC(=O)O)C(=O)N[C@@H](C(=O)N1CCC[C@H]1C(=O)N[C@H](C(=O)N[C@@H](CCCCN)C(=O)N[C@@H](CC(C)C)C(=O)N[C@@H](CCCCNC(=O)CC[C@H](NC(=O)CCCCCCCCCCCCC(=O)O)C(=O)O)C(=O)N[C@@H](CCCCN)C(=O)N[C@H](C(=O)N[C@@H](CC(C)C)C(=O)N[C@@H](CC(C)C)C(=O)N[C@@H](CCC(=O)O)C(=O)N[C@@H](CCC(N)=O)C(=O)N[C@@H](CCC(=O)O)C(=O)N[C@@H](CCCCN)C(=O)N[C@@H](CCC(N)=O)C(=O)N[C@@H](CCCCN)C(=O)N[C@@H](CCCCN)C(=O)N[C@@H](CCC(N)=O)C(=O)N[C@@H](CCCNC(=N)N)C(=O)N[C@@H](CCC(=O)O)C(=O)N[C@@H](CCC(N)=O)C(=O)N[C@@H](C)C(=O)N[C@@H](CCC(=O)O)C(=O)N[C@H](C(=O)N[C@@H](CC(N)=O)C(=O)NC(C)(C)C(=O)N[C@@H](CCC(N)=O)C(=O)N[C@H](C(=O)N[C@@H](CC(C)C)C(=O)N[C@@H](C)C(=O)N[C@@H](CCC(N)=O)C(=O)N[C@H](C(N)=O)C(C)C)[C@@H](C)CC)[C@@H](C)O)[C@@H](C)CC)[C@@H](C)CC)C(C)C)C(C)C [compound 82] (Ac-IVLSLD[dV]PIKLK([γGlu-C14 diacid])KILLEQEKQKKQREQAETN[Aib]QILAQV-NH2) | 82 | −33 | −4 | 11 | 14 | 221 | 64 | 45 | 84 | 0.0/Not Tested % | – | – | – | – | – | – |
| CC[C@H](C)[C@H](NC(C)=O)C(=O)N[C@H](C(=O)N[C@@H](CC(C)C)C(=O)N[C@@H](CO)C(=O)N[C@@H](CC(C)C)C(=O)N[C@@H](CC(=O)O)C(=O)N[C@@H](C(=O)N1CCC[C@H]1C(=O)N[C@H](C(=O)N[C@@H](CCCCN)C(=O)N[C@@H](CC(C)C)C(=O)N[C@@H](CCCCNC(=O)CC[C@H](NC(=O)CCCCCCCCCCCCCCCCCCC(=O)O)C(=O)O)C(=O)N[C@@H](CCCCN)C(=O)N[C@H](C(=O)N[C@@H](CC(C)C)C(=O)N[C@@H](CC(C)C)C(=O)N[C@@H](CCC(=O)O)C(=O)N[C@@H](CCC(N)=O)C(=O)N[C@@H](CCC(=O)O)C(=O)N[C@@H](CCCCN)C(=O)N[C@@H](CCC(N)=O)C(=O)N[C@@H](CCCCN)C(=O)N[C@@H](CCCCN)C(=O)N[C@@H](CCC(N)=O)C(=O)N[C@@H](CCCNC(=N)N)C(=O)N[C@@H](CCC(=O)O)C(=O)N[C@@H](CCC(N)=O)C(=O)N[C@@H](C)C(=O)N[C@@H](CCC(=O)O)C(=O)N[C@H](C(=O)N[C@@H](CC(N)=O)C(=O)NC1(C(=O)N[C@@H](CCC(N)=O)C(=O)N[C@H](C(=O)N[C@@H](CC(C)C)C(=O)N[C@@H](C)C(=O)N[C@@H](CCC(N)=O)C(=O)N[C@H](C(N)=O)C(C)C)[C@@H](C)CC)CCOCC1)[C@@H](C)O)[C@@H](C)CC)[C@@H](C)CC)C(C)C)C(C)C [compound 210] (Ac-IVLSLD[dV]PIKLK([γGlu-C20 diacid])KILLEQEKQKKQREQAETN[Thp]QILAQV-NH2) | 72 | −13 | −13 | −6 | >24 | – | – | – | – | 0.0/0.0 ^ % | 7780 | 504 | 0.0/0.0 ^ % | – | – | – |
| CC[C@H](C)[C@H](NC(C)=O)C(=O)N[C@H](C(=O)N[C@@H](CC(C)C)C(=O)N[C@@H](CO)C(=O)N[C@@H](CC(C)C)C(=O)N[C@@H](CC(=O)O)C(=O)N[C@@H](C(=O)N1CCC[C@H]1C(=O)N[C@H](C(=O)N[C@@H](CCCCN)C(=O)N[C@@H](CC(C)C)C(=O)N[C@@H](CCCCNC(=O)COCCOCCNC(=O)COCCOCCNC(=O)CC[C@H](NC(=O)CCCCCCCCCCCCCCCCCCC(=O)O)C(=O)O)C(=O)N[C@@H](CCCCN)C(=O)N[C@H](C(=O)N[C@@H](CC(C)C)C(=O)N[C@@H](CC(C)C)C(=O)N[C@@H](CCC(=O)O)C(=O)N[C@@H](CCC(N)=O)C(=O)N[C@@H](CCC(=O)O)C(=O)N[C@@H](CCCCN)C(=O)N[C@@H](CCC(N)=O)C(=O)N[C@@H](CCCCN)C(=O)N[C@@H](CCC(=O)O)C(=O)N[C@@H](CCC(N)=O)C(=O)N[C@@H](CCCNC(=N)N)C(=O)N[C@@H](CCC(=O)O)C(=O)N[C@@H](CCC(N)=O)C(=O)N[C@@H](C)C(=O)N[C@@H](CCC(=O)O)C(=O)N[C@H](C(=O)N[C@@H](CC(N)=O)C(=O)NC(C)(C)C(=O)N[C@@H](CCC(N)=O)C(=O)N[C@H](C(=O)N[C@@H](CC(C)C)C(=O)N[C@@H](C)C(=O)N[C@@H](CCC(N)=O)C(=O)N[C@H](C(N)=O)C(C)C)[C@@H](C)CC)[C@@H](C)O)[C@@H](C)CC)[C@@H](C)CC)C(C)C)C(C)C [compound 236] (Ac-IVLSLD[dV]PIKLK([AEEA-AEEA-γGlu-C20 diacid])KILLEQEKQKEQREQAETN[Aib]QILAQV-NH2) | 75 | – | – | – | – | – | – | – | – | 3.8/Not Tested % | 8250 | 900 | – | 0.54 | 7 | > 250 |
| CC[C@H](C)[C@H](NC(C)=O)C(=O)N[C@H](C(=O)N[C@@H](CC(C)C)C(=O)N[C@@H](CO)C(=O)N[C@@H](CC(C)C)C(=O)N[C@@H](CC(=O)O)C(=O)N[C@@H](C(=O)N1CCC[C@H]1C(=O)N[C@H](C(=O)N[C@@H](CCCCN)C(=O)N[C@@H](CC(C)C)C(=O)N[C@@H](CCCCNC(=O)CC[C@H](NC(=O)CC[C@H](NC(=O)CCCCCCCCCCCCCCCCCCC(=O)O)C(=O)O)C(=O)O)C(=O)N[C@@H](CCCCN)C(=O)N[C@H](C(=O)N[C@@H](CC(C)C)C(=O)N[C@@H](CC(C)C)C(=O)N[C@@H](CCC(=O)O)C(=O)N[C@@H](CCC(N)=O)C(=O)N[C@@H](CCC(=O)O)C(=O)N[C@@H](CCCCN)C(=O)N[C@@H](CCC(N)=O)C(=O)N[C@@H](CCCCN)C(=O)N[C@@H](CCC(=O)O)C(=O)N[C@@H](CCC(N)=O)C(=O)N[C@@H](CCCNC(=N)N)C(=O)N[C@@H](CCC(=O)O)C(=O)N[C@@H](CCC(N)=O)C(=O)N[C@@H](C)C(=O)N[C@@H](CCC(=O)O)C(=O)N[C@H](C(=O)N[C@@H](CC(N)=O)C(=O)NC(C)(C)C(=O)N[C@@H](CCC(N)=O)C(=O)N[C@H](C(=O)N[C@@H](CC(C)C)C(=O)N[C@@H](C)C(=O)N[C@@H](CCC(N)=O)C(=O)N[C@H](C(N)=O)C(C)C)[C@@H](C)CC)[C@@H](C)O)[C@@H](C)CC)[C@@H](C)CC)C(C)C)C(C)C [compound 241] (Ac-IVLSLD[dV]PIKLK([γGlu-γGlu-C20 diacid])KILLEQEKQKEQREQAETN[Aib]QILAQV-NH2) | 68 | – | – | – | – | – | – | – | – | 2.0/Not Tested % | 6210 | 900 | – | 0.56 | 7 | > 250 |

Reference: patent US20260001928A1 (CORTERIA PHARMACEUTICALS, priority 2022, published 2026)
